Source: paper PMC3592886, “Utilization of Quantitative In Vivo Pharmacology Approaches to Assess Combination Effects of Everolimus and Irinotecan in Mouse Xenograft Models of Colorectal Cancer” (PLoS ONE, 2013)
Read-outs that look alike come from different tables or passages of the source. Marks after values point to notes of the source that are not given here.

Key:
[1] = Irinotecan and SN-38 plasma PK model and simulations in mice; conditions: PK model parameter, fit to data of previous publications (37-39)
Source text: The pharmacokinetic models used for everolimus and irinotecan and SN38 in the above equations can be found in Supplement B. Data used to fit the everolimus pharmacokinetics was obtained in the study presented here. In the above equations, for irinotecan treatments, SN38 concentration was used to determine the effect since it is the active agent. The data used to fit the irinotecan and SN38 pharmacokinetics was obtained from previous publications (37-39).
Irinotecan and SN-38 Plasma PK […]

HCT8 cells = test: Sulforhodamine B (SRB) anti-proliferation assay, HCT8; assay type: cell-based; conditions: RAD (20 nM), SN38 (4 nM) or the combination of the two, Figure 2
Procedure: (§1) Cytoxic effects were determined using the sulforhodamine B (SRB) assay. Briefly, 5000 viable cells were plated into 96-well plates and incubated overnight prior to exposure with different concentrations of drugs. Cells were exposed to increasing concentrations of everolimus (0–200 nM), SN38 (0–8 nM), and combinations of the two. Following a 72 hour incubation, media was removed and cells were fixed with cold 10% trichloroacetic acid for 30 minutes at 4° C. Cells were washed with water and stained with 0.4% SRB for 30 minutes at room temperature. Cells were washed again with 1% acetic acid and stain was solubilized with 10 mM tris at room temperature and read at an OD of 565 nm. […] The resulting Combination Index (CI) was used as a quantitative measure of the degree of interaction between different drugs. A CI value equal to 1 denotes additivity; CI greater than 1, antagonism; CI less than 1, synergism.

[2] = SN38, humans; cited from earlier work
[3] = Human, cited from earlier work
cleaved PARP = test: Western blot, cleaved PARP in CRC cell lines; assay type: cell-based
Procedure: (§2) Cells were seeded into 6-well plates 24 hours prior to treatment with each drug alone or in combination for 24 hours. Cells were scraped into RIPA buffer containing protease inhibitors, EDTA, NaF, and sodium orthovanadate. Total protein was determined using the Pierce 660 nm Protein Assay (Pierce, Rockford, IL). Thirty micrograms of total protein was loaded onto a 4–12% gradient gel, electrophoresed and transferred to nitrocellulose using the iBlot system (Invitrogen, Carlsbad, CA). Membranes were blocked for one hour at room temperature with Licor Blocking Buffer (Licor, Lincoln, NE) prior to overnight incubation at 4°C with one of the following antibodies: pS6RP, tS6RP, pAKT, tAKT, pERK, tERK, p21, PARP, actin and α-tubulin (Cell Signaling, Beverly, MA). All antibodies were used at a 1∶1000 dilution except for pERK, which was used at 1∶2000. Following primary antibody incubation, blots were washed in TBS-Tween(0.1%), then incubated with the appropriate secondary antibody at 1∶15,000 (Licor, Lincoln, NE) for one hour at room temperature. After three additional washes, blots were developed using the Licor Odyssey (Licor, Lincoln, NE).

[4] = cited from earlier work; for AUC0→t: t = 6 h
p21 = test: Western blot, p21 in CRC cell lines; assay type: cell-based; conditions: SN38 4 nM, 24 hours, HCT116 and HCT8 cells
Procedure: as §2

[5] = Mouse pharmacokinetics of SN38 after irinotecan from the literature; assay type: in vivo; conditions: mice, irinotecan 10 mg/kg iv, estimated from literature data
Procedure: (§3) In vivo SN38 data was evaluated to define the dose of irinotecan to be used since it is the active metabolite of irinotecan and carboxylesterase conversion of irinotecan to SN38 varies between mice and humans. Based on human and mouse pharmacokinetic data gathered from literature data [27]–[30], [35]–[40], we selected a dose of 10 mg/kg of irinotecan to be administered intravenously once weekly (Table 2).

HCT116 cells = test: Sulforhodamine B (SRB) anti-proliferation assay, HCT116; assay type: cell-based
Procedure: as §1

[6] = Human pharmacokinetics of SN38 after irinotecan from the literature; assay type: in vivo; conditions: humans, irinotecan doses ranging from 125–350 mg/m^2, from literature data
Procedure: as §3

HT29 cells = test: Sulforhodamine B (SRB) anti-proliferation assay, HT29; assay type: cell-based
Procedure: as §1

[7] = SN38, mice; cited from earlier work
HCT116 tumor xenografts = test: Therapeutic study and tumor growth modeling, HCT116 tumor xenografts; assay type: in vivo, mice
Procedure: (§4) For tumor bearing studies, cells were harvested and resuspended in a 1∶1 mixture of serum-free RPMI and Matrigel (BD Bioscience). One million cells were injected subcutaneously into each rear flank of mice. Tumor volumes, measured by digital calipers, were calculated by V (mm^3) = length x (width)^2 x 0.5236.
(§5) When HT29 and HCT116 tumors reached an average volume of ∼325 mm^3 animals were randomized into four treatment groups (n = 9–10 mice per group): (i) vehicles, (ii) 5 mg/kg everolimus (RAD) by oral gavage (PO) daily, (iii) 10 mg/kg irinotecan (IRI) once weekly by intravenous (iv) tail vein injection, and (iv) a combination of RAD and IRI. Everolimus, diluted in sterile water, and irinotecan, diluted in sterile 0.9% saline, were administered at 4 mL/kg. Animals were treated for 28 days. Tumor volumes and body weights were measured 2–3 times weekly. On day 28 of treatment 3–6 animals per group were sacrificed, approximately 24 hours following everolimus treatment, and tumors harvested for metabolomic analysis.
(§6) Data from the in vivo study was modeled to assess the therapeutic benefit of adding everolimus to irinotecan. The model used was similar to a previously published model for assessing combination therapy. Some modifications were made and details of the model can be found in Supplement S1 (section SA.3.) and Supplement S2. All modeling was performed on individual animal tumor volume data and modeled with SAAM II version 2.1. […]
(§7) are presented in Tables 1 and 2 in Supplement B. Individual fits of the model to the data can also be found in Supplement B. The average growth terms for each tumor type were then fixed at the average parameter value and used to determine the single agent effects (kx) of each compound by fitting the following equation: […] where cx(t) is the concentration of drug x with respect to time. Individual tumors were modeled and the average value of kx determined (Supplement B Tables 1 & 2) for each single agent treatment. This value was used to fit the following equation to the combination tumor growth data to determine the degree of interaction between the two drugs.
(§8) , the interaction term, was determined for each individual tumor for each tumor type and the data is presented in Table 2 in the main text and individual fits can be found in Supplement B.
(§9) We determined that values greater than 1.3 are synergistic, between 1.3 and 0.7 are additive, between 0.7 and 0 are less than additive, and negative values for are antagonistic. These ranges were selected based on the model fits. The CV% for the model fits ranged from 15 to 50 with an average CV% of approximately 30%. Therefore we assume an average variance of 30% making the additive range from 1.3 to 0.7 (1 + 30% and 1- 30%). […]

HT29 tumors = test: NMR-based metabolomics of HT29 tumors; assay type: in vivo, mice; conditions: end of study
Procedure: as §5
For metabolomic analysis, animals were fasted for 4 hours then received 250 mg/kg of [1-^13C] glucose (Cambridge Isotopes, Cambridge, MA) by IV injection 60 minutes prior to tumor harvesting. Snap-frozen tumor specimens underwent two-phase acid extraction procedure (using 8% perchloric acid) previously established and extensively published [19]–[22]. Further details may also be found in Supplement S1 (section SA.2.).

HT29 tumor xenografts = test: Therapeutic study and tumor growth modeling, HT29 tumor xenografts; assay type: in vivo, mice
Procedure: as §4, §5, §6, §7, §8, §9

[8] = SN38 after irinotecan 125mg/m^2, 1.5 hr INF, ref 27
[9] = SN38 after irinotecan 125mg/m^2, 1.5 hr INF, ref 29
[10] = SN38 after irinotecan 340mg/m^2, 1.5 hr INF
[11] = SN38 after irinotecan 350mg/m^2, 1 hr INF, Week 4 PK with cetuximab
[12] = SN38 after irinotecan 350mg/m^2, 1 hr INF
[13] = SN38 after irinotecan 5mg/kg IV Bolus, Mouse
[14] = SN38 after irinotecan 10mg/kg IV Bolus, Mouse, ref 39
[15] = SN38 after irinotecan 20mg/kg IV Bolus, Mouse
[16] = SN38 after irinotecan 40mg/kg IV Bolus, Mouse

SMILES: CCc1c2c(nc3ccc(O)cc13)-c1cc3c(c(=O)n1C2)COC(=O)[C@]3(O)CC [SN38]
- k(0,3) ([1]; K(0,3)SN38): 4.67 h⁻¹
- V3 ([1]; SN-38 central compartment): 2.7 L/kg
- k(3,4) [1]: 1.38 h⁻¹
- k(4,3) [1]: 5.22 h⁻¹
- %Growth Inhibition (HCT8 cells): 50%
- plasma protein binding [2]: 98%
- AUC0→t [3, 8]: 229 ± 108 ng·h/mL
- Cmax [3, 8]: 26.3 ± 11.9 ng/mL
- t½ [3, 8]: 10.4 ± 3.1 h
- AUC0→t [3, 9]: 228 ± 149 ng·h/mL
- Cmax [3, 9]: 27 ± 12 ng/mL
- t½ [3, 9]: 28.5 h
- AUC0→t ([3]; SN38 after irinotecan 180mg/m^2, 1.5 hr INF, footnote a: Week 4 PK with cetuximab): 222–245 ^a ng·hr/mL
- AUC0→t [3, 10]: 474 ± 245 ng·h/mL
- Cmax [3, 10]: 56.0 ± 28.2 ng/mL
- t½ [3, 10]: 21.0 ± 4.3 h
- AUC0→t [3, 11]: 609±531 ^a ng·hr/mL
- Cmax [3, 11]: 57±20 ^a ng/mL
- t½ [3, 11]: 15±23 ^a hr
- AUC0→t [3, 12]: 931 ± 948 ng·h/mL
- Cmax [3, 12]: 88 ± 26 ng/mL
- t½ [3, 12]: 23 ± 35 h
- cleaved PARP (MW 89) (cleaved PARP; SN38 treated HCT8 cells): A small amount
- cleaved PARP (MW 89) (cleaved PARP; SN38 treated HT29 or HCT116 cells): not
- AUC0→∞ [4, 13]: 279 ^c ng·hr/mL
- Cmax [4, 13]: 647 ng/mL
- Cmax ([4]; SN38 after irinotecan 10mg/kg IV Bolus, Mouse (row r13), estimated from graph in reference): 443–673 ^b ng/mL
- AUC0→∞ ([4]; SN38 after irinotecan 10mg/kg IV Bolus, Mouse (row r13)): 533–1029 ^c ng·hr/mL
- Cmax ([4]; SN38 after irinotecan 10mg/kg IV Bolus, Mouse, estimated from graph in reference): 435–600 ^b ng/mL
- t½ ([4]; SN38 after irinotecan 10mg/kg IV Bolus, Mouse, ref 36): 2.2 h
- AUC0→∞ ([4]; SN38 after irinotecan 10mg/kg IV Bolus, Mouse, ref 37): 533–759 ^c ng·hr/mL
- AUC0→∞ [4, 14]: 534 ^c ng·hr/mL
- Cmax [4, 14]: 443 ng/mL
- AUC0→t ([4]; SN38 after irinotecan 10mg/kg IV Bolus, Mouse): 410±60 (t = 6 h) ng·hr/mL
- AUC0→t [4, 15]: 710±240 (t = 6 h) ng·hr/mL
- t½ [4, 15]: 3.0 h
- AUC0→t [4, 16]: 1080±110 (t = 6 h) ng·hr/mL
- t½ [4, 16]: 3.4 h
- effect on p21 (p21): increase
- AUCfree of SN38 [5]: 7.5 to 25.8 ng·h/mL
- %Growth Inhibition (HCT116 cells; HCT116, RAD (20 nM), SN38 (4 nM) or the combination of the two, Figure 2): 23%
- IC50 (HCT116 cells; HCT116 cells): > 300 nM
- AUCfree of SN38 [6]: 4.4 to 18.6 ng·h/mL
- %Growth Inhibition (HT29 cells; HT29, RAD (20 nM), SN38 (4 nM) or the combination of the two, Figure 2): 59%
- IC50 (HT29 cells; HT29 cells): 3 nM
- plasma protein binding [7]: 96.6–98.6%

SMILES: CCc1c2c(nc3ccc(OC(=O)N4CCC(N5CCCCC5)CC4)cc13)-c1cc3c(c(=O)n1C2)COC(=O)[C@]3(O)CC [Irinotecan]
- k(0,1) ([1]; K(0,1)IRI): 0.25 h⁻¹
- k(3,1) ([1]; compartment 1 (irinotecan) to 3 (SN-38)): 1.91 h⁻¹
- V1 ([1]; irinotecan central compartment, Dose = 10 mg/kg): 2.8 L/kg
- k(1,2) [1]: 1.15 h⁻¹
- k(2,1) [1]: 0.87 h⁻¹
- k1 (SD), single agent effect (HCT116 tumor xenografts; HCT116 (KRAS and PIK3CA mutant), IRI, SN38 concentration used in the model): 0.0149 (0.0086) mL/ng*day-1
- average tumor growth inhibition, TGI (HCT116 tumor xenografts; HCT116 xenografts, 5 mg/kg everolimus PO daily, 10 mg/kg irinotecan iv once weekly, or combination, 28 days): 17%
- effect on tumor lipids (HT29 tumors): accumulation of lipids
- k1 (SD), single agent effect (HT29 tumor xenografts; HT29 (BRAF and PIK3CA mutant), IRI, SN38 concentration used in the model): 0.0092 (0.0023) mL/ng*day-1
- average tumor growth inhibition, TGI (HT29 tumor xenografts; HT29 xenografts, 5 mg/kg everolimus PO daily, 10 mg/kg irinotecan iv once weekly, or combination, 28 days): 39%
